Consider one compound from paper PMC6389703, “Identification of Biologically Active Ganoderma lucidum Compounds and Synthesis of Improved Derivatives That Confer Anti-cancer Activities in vitro” (Frontiers in Pharmacology, 2019).

Usually EC50 stands for the concentration at which the effect is half-maximal. High values mean a less potent agent, low ones a more potent agent.

The structures appear in SMILES notation.

For assay [1], the system named is SUM-149 cells. Put plainly: Annexin V/7-AAD apoptosis detection. To be noted: 48 h. Type of assay: cell-based, human. As to the method: SUM-149 cells (5 × 10^5) were seeded and treated either with vehicle (0.1% DMSO) or with 20 μM of EP or with puromycin (200 ng/mL) as positive control for 48 h. After treatment floating cells were collected, and all cells were harvested and counted. Treated cells were analyzed for cell death by using the FITC Annexin-V/7AAD Apoptosis detection kit (product #640922, Biolegend, San Diego, CA, United States) according to the manufacturer’s instructions. Briefly, cells were resuspended in Annexin Binding Buffer, stained with Annexin V-FITC and/or 7-AAD, and incubated for 30 min at 4°C. Data were acquired on a BD FACS Canto II cytometer (BD Biosciences, San José, CA, United States) and analyzed by using FlowJo software (V10, FlowJo, LLC, Ashland, OR, United States).

In assay [2] the test system is MDA-MB-231 cells. Put plainly: Cell viability assay, MDA-MB-231. Type of assay: cell-based. To be noted: Homo sapiens, Figure 4E. As to the method:
Either 1 × 10^3–4.8 × 10^3 or 4 × 10^2–1.2 × 10^3 cells were seeded to each well of 96- or 384-well white polystyrene flat-bottomed plates (3610 or 8804BC, Corning) in 100 μL or 30 μL media per well, respectively. The concentrations used were experimentally determined to ensure logarithmic growth during the duration of the experiment and prevent adverse effects on cell growth by DMSO exposure. The plates were incubated at 37°C in 5% CO2 for 24 h before treatment. Stock solutions of test compounds (10 mM in DMSO) in nine 3-fold serial dilutions were dispensed via pintool (Biomek). The final concentration of DMSO was 0.3% (v/v) in each well. […] Luminescence was recorded in an Envision plate reader (PerkinElmer). […]
(§1) For the CTG assay, 3 or 4 replicate assays were conducted for each experimental condition, and a minimum of 3 independent experiments were conducted for cellular assays. The mean luminescence of each experimental treatment group was normalized as a percentage of the mean intensity of untreated controls. EC50 values (μM) were calculated by Pipeline Pilot Software (Accelrys, Enterprise Platform, San Diego, CA, United States). EC50 values (μM) from the viability assay were calculated from dose response curve-fitting via non-linear regression by using GraphPad Prism (Version 7.0, San Diego, CA, United States). […]

The test system of assay [3] is SUM-149 cells. As to the kind of experiment: Colony formation assay. Type of assay: cell-based, human. The note with it: 72 h treatment, 5–40 μM, 10 days culture. The protocol: SUM-149 cells (1.5 × 10^6 cells/well) were plated on a 6-well plate. Two days later, cell media was changed to 5% FBS, and cells were incubated at 37°C in a 5% CO2 atmosphere for 1 h before vehicle (0.1% DMSO) or EP (5–40 μM) was added. After 72 h of treatment, cells were trypsinized and reseeded at 200 cells/mL per well in 24-well plates. After 10 days of culture, colonies were visualized by crystal violet staining, and the colony numbers were counted under a microscope.

For assay [4], the system named is AKT isoforms, BCL-XL, Cyclin D1, c-Myc, PARP in SUM-149 cells. Put plainly: Immunoblots of signaling proteins. Type of assay: cell-based, human. The source says: Breast cancer cells treated with vehicle or EP were lysed, and equal total protein was resolved via SDS-PAGE and immunoblotted with indicated antibodies (Cell Signaling Technologies, Abcam, Sigma) as described previously ([Castillo-Pichardo et al., 2009]; [Martinez-Montemayor et al., 2011]; [Suarez-Arroyo et al., 2016]).
A general note: Immunoblotting shows a protein as a band on a membrane.

Assay [5] deals with additional cancer cellular models. As to the kind of experiment: Cell viability, additional cancer cellular models. Type of assay: cell-based. The note with it: Supplementary Figure S2. The protocol: Either 1 × 10^3–4.8 × 10^3 or 4 × 10^2–1.2 × 10^3 cells were seeded to each well of 96- or 384-well white polystyrene flat-bottomed plates (3610 or 8804BC, Corning) in 100 μL or 30 μL media per well, respectively. The concentrations used were experimentally determined to ensure logarithmic growth during the duration of the experiment and prevent adverse effects on cell growth by DMSO exposure. The plates were incubated at 37°C in 5% CO2 for 24 h before treatment. Stock solutions of test compounds (10 mM in DMSO) in nine 3-fold serial dilutions were dispensed via pintool (Biomek). The final concentration of DMSO was 0.3% (v/v) in each well. […] Luminescence was recorded in an Envision plate reader (PerkinElmer).
as §1

Assay [6] concerns MCF-7 cells. As to the kind of experiment: ROS measurement (CellROX green), MCF-7. Type of assay: cell-based, human. As to the method:
SUM-149 or MDA-MB-231 were plated in 96-well plates at a density of 2 × 10^4 and 1 × 10^4 cells/well, respectively, in black 96-well clear bottom tissue culture plates and incubated for 24 h at 37°C. The mRuby-Mito-7 plasmid was obtained from Addgene (#55874 from Michael Davidson). A stable clone of MCF-7 was generated by using Fugene 6 (Roche) to transfect cells (2 × 10^5) with plasmid (2.0 μg) under neomycin selection. A stable cell line was selected by using G418 (300 μg/mL) for 2 weeks, sorted by flow cytometry, and maintained under G418 thereafter. Transfected MCF-7 cells were plated at a density of 2 × 10^4 cells/well in black 96-well clear bottom tissue culture plates and incubated overnight at 37°C. To test for ROS formation and remove background, cells were replenished with fresh PBS with 2% FBS and treated with the desired compounds for 1 h at 37°C. DMSO (0.5%) was used as a negative control, while Menadione (Mena, at 10 μM) or t-Butyl hydroperoxide (TBHP) at 100 μM final concentration were used as a positive control. To evaluate the compounds’ effects on ROS formation inhibition, the free radical scavenger N-acetyl cysteine (NAC) was used. Cells were treated with or without NAC (500 μM or 100 μM) for 1 h, then CellROX® green reagent (Molecular Probes #C10444) was added to a final concentration of 5 μM, and cells were incubated for an additional 30 min at 37°C. Cells were then washed 2× with PBS, followed by fixation with 4% paraformaldehyde (v/v) for 15 min, and 2 more washes with PBS. Fluorescence intensity was measured in a Clariostar® plate reader (BMG LABTECH, Cary, NC, United States) at 535 nm.

In assay [1] (20μM), `CC(C)[C@@H](C)/C=C/[C@@H](C)[C@H]1CC[C@@H]2[C@]1(C)CC[C@H]1[C@]23C=C[C@]2(C[C@@H](O)CC[C@]12C)OO3` [EP, ergosterol peroxide] had an Early apoptotic cells of 50.1%, a Late apoptotic cells of 3.2% and a Live cells of 45.9%. Besides, in assay [1] (vs vehicle), the “decrease of live cells (Annexin-, 7AAD-)” value is listed as ~15%. The same compound returned an EC50 in assay [2] of 19 µM. The “number and size of colonies formed” value in assay [3] is “concentration-dependent decrease”. In assay [4] (SUM-149), the AKT3 levels entry is listed as “not affecting AKT3 levels” and the p-AKT2 entry was “without affecting p-AKT2”. Also, in assay [4] (SUM-149, 30 μM, 24 h), the PARP cleavage entry was “induces PARP cleavage” and the “total PARP levels” value was “significantly reduces total PARP levels”. Besides, in assay [4] (SUM-149, 72 h), the AKT2 levels entry is given as “decreases”, the “expression of BCL-XL” value is on record as “significantly reduces”, the “expression of Cyclin D1” value was “significantly reduces” and the “expression of c-Myc” value is recorded as “significantly reduces”. Further, in assay [4] (SUM-149, 72 h), the “expression of p-AKT1 (Ser 473)” value is given as “significantly decreases” and the “total AKT1 levels” value was “decreases total AKT1”. The compound also came in with an EC50 in assay [5] of 7 to 22 µM. For the same compound, the “ROS increase (fold)” value in assay [6] (GA-01, ergosterol, 5,6-dehydroergosterol 50 µM, EP 20 µM) is listed as “at least a twofold”. The “ROS formation reduction when co-treated with NAC” value in assay [6] (NAC 100 µM, TBHP 100 µM) was 9–25%.
